Experimental data taken from PubChem BioAssay (NCI).
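In this assay, cells in 96-well plates receive the compound at five concentrations for 48 hours. Endpoints are linearly interpolated between the surrounding concentrations. The concentration for full growth arrest is given as TGI.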

How the values were obtained:
Assay in all cases: NCI-60 cell line screen, 48 h
786-0 renal = test system: 786-0 renal
U251 CNS = test system: U251 CNS
OVCAR-4 ovarian = test system: OVCAR-4 ovarian
SR leukemia = test system: SR leukemia
HCT-15 colon = test system: HCT-15 colon
TK-10 renal = test system: TK-10 renal
KM12 colon = test system: KM12 colon
HCT-116 colon = test system: HCT-116 colon
SNB-75 CNS = test system: SNB-75 CNS
A549 NSCLC = test system: A549 NSCLC
OVCAR-5 ovarian = test system: OVCAR-5 ovarian
NCI-H226 lung = test system: NCI-H226 lung
SF-268 CNS = test system: SF-268 CNS
RXF 393 renal = test system: RXF 393 renal
A498 renal = test system: A498 renal
NCI/ADR-RES ovarian = test system: NCI/ADR-RES ovarian
RPMI-8226 leukemia = test system: RPMI-8226 leukemia
SW-620 colon = test system: SW-620 colon
OVCAR-3 ovarian = test system: OVCAR-3 ovarian
HL-60(TB) leukemia = test system: HL-60(TB) leukemia
M14 melanoma = test system: M14 melanoma
PC-3 prostate = test system: PC-3 prostate
IGROV1 ovarian = test system: IGROV1 ovarian
T-47D breast = test system: T-47D breast
UACC-62 melanoma = test system: UACC-62 melanoma
HS 578T breast = test system: HS 578T breast
MCF7 breast = test system: MCF7 breast
EKVX NSCLC = test system: EKVX NSCLC
SK-OV-3 ovarian = test system: SK-OV-3 ovarian
SNB-19 CNS = test system: SNB-19 CNS
COLO 205 colon = test system: COLO 205 colon
HOP-62 NSCLC = test system: HOP-62 NSCLC
MDA-N = test system: MDA-N
SN12C renal = test system: SN12C renal
MOLT-4 leukemia = test system: MOLT-4 leukemia
NCI-H23 lung = test system: NCI-H23 lung
UACC-257 melanoma = test system: UACC-257 melanoma
SK-MEL-28 melanoma = test system: SK-MEL-28 melanoma
MDA-MB-231 breast = test system: MDA-MB-231 breast
SF-295 CNS = test system: SF-295 CNS
DU-145 prostate = test system: DU-145 prostate
K-562 leukemia = test system: K-562 leukemia
UO-31 renal = test system: UO-31 renal
NCI-H460 lung = test system: NCI-H460 lung
SF-539 CNS = test system: SF-539 CNS
MDA-MB-435 = test system: MDA-MB-435
HOP-92 NSCLC = test system: HOP-92 NSCLC
SK-MEL-2 melanoma = test system: SK-MEL-2 melanoma
LOX IMVI melanoma = test system: LOX IMVI melanoma
HCC-2998 colon = test system: HCC-2998 colon
OVCAR-8 ovarian = test system: OVCAR-8 ovarian
ACHN renal = test system: ACHN renal
HT29 colon = test system: HT29 colon
CAKI-1 renal = test system: CAKI-1 renal
CCRF-CEM leukemia = test system: CCRF-CEM leukemia
SK-MEL-5 melanoma = test system: SK-MEL-5 melanoma
NCI-H522 lung = test system: NCI-H522 lung

Compound `N=C(N)SCc1ccc2c(c1)S(=O)(=O)c1ccccc1O2` has a TGI (786-0 renal) of over 100 µM, a TGI (U251 CNS) of 38.2 µM and a TGI (OVCAR-4 ovarian) of 66.9 µM. For the same compound, the TGI (SR leukemia) was over 100 µM, the TGI (HCT-15 colon) was 87.9 µM and the TGI (TK-10 renal) was 34.7 µM. The TGI (KM12 colon) was 32.7 µM, the TGI (HCT-116 colon) was 63.1 µM and the TGI (SNB-75 CNS) was 28.7 µM. For the same compound, the TGI (A549 NSCLC) was 39.8 µM, the TGI (OVCAR-5 ovarian) was 47.3 µM and the TGI (NCI-H226 lung) was 48.9 µM. The TGI (SF-268 CNS) was 93.1 µM, the TGI (RXF 393 renal) was 47.5 µM and the TGI (A498 renal) was 35.1 µM. The TGI (NCI/ADR-RES ovarian) was over 100 µM, the TGI (RPMI-8226 leukemia) was over 100 µM and the TGI (SW-620 colon) was 53 µM. The TGI (OVCAR-3 ovarian) was 40.5 µM, the TGI (HL-60(TB) leukemia) was over 100 µM and the TGI (M14 melanoma) was 62.5 µM. It also gave a TGI (PC-3 prostate) of 37.4 µM, a TGI (IGROV1 ovarian) of 31.5 µM and a TGI (T-47D breast) of 73.8 µM. It also gave a TGI (UACC-62 melanoma) of 34.9 µM, a TGI (HS 578T breast) of 78.7 µM and a TGI (MCF7 breast) of 34.7 µM. The TGI (EKVX NSCLC) was 35.2 µM, the TGI (SK-OV-3 ovarian) was 53.2 µM and the TGI (SNB-19 CNS) was over 100 µM. The TGI (COLO 205 colon) was over 100 µM, the TGI (HOP-62 NSCLC) was 42.4 µM and the TGI (MDA-N) was 77 µM. The TGI (SN12C renal) was over 100 µM, the TGI (MOLT-4 leukemia) was over 100 µM and the TGI (NCI-H23 lung) was 43.4 µM. For the same compound, the TGI (UACC-257 melanoma) was 35.2 µM, the TGI (SK-MEL-28 melanoma) was 33.1 µM and the TGI (MDA-MB-231 breast) was over 100 µM. The TGI (SF-295 CNS) was 56.8 µM, the TGI (DU-145 prostate) was over 100 µM and the TGI (K-562 leukemia) was over 100 µM. It also gave a TGI (UO-31 renal) of 29.7 µM, a TGI (NCI-H460 lung) of 53.1 µM and a TGI (SF-539 CNS) of 55.7 µM. The TGI (MDA-MB-435) was 34.3 µM, the TGI (HOP-92 NSCLC) was 42.8 µM and the TGI (SK-MEL-2 melanoma) was 34.5 µM. It also gave a TGI (LOX IMVI melanoma) of 60.2 µM, a TGI (HCC-2998 colon) of 56.8 µM and a TGI (OVCAR-8 ovarian) of over 100 µM. It also gave a TGI (ACHN renal) of 31.9 µM, a TGI (HT29 colon) of 33.8 µM and a TGI (CAKI-1 renal) of 51.7 µM. It also gave a TGI (CCRF-CEM leukemia) of over 100 µM.

`NC(Cc1ccc(CP(=O)(O)O)cc1)C(=O)O` (stereo not drawn) showed a TGI (U251 CNS) of over 100 µM, a TGI (OVCAR-4 ovarian) of over 100 µM and a TGI (SR leukemia) of over 100 µM. For the same compound, the TGI (HCT-15 colon) was over 100 µM, the TGI (TK-10 renal) was over 100 µM and the TGI (KM12 colon) was over 100 µM. For the same compound, the TGI (HCT-116 colon) was over 100 µM, the TGI (SNB-75 CNS) was over 100 µM and the TGI (A549 NSCLC) was over 100 µM. For the same compound, the TGI (OVCAR-5 ovarian) was over 100 µM, the TGI (SF-268 CNS) was over 100 µM and the TGI (RXF 393 renal) was over 100 µM. For the same compound, the TGI (NCI/ADR-RES ovarian) was over 100 µM, the TGI (RPMI-8226 leukemia) was over 100 µM and the TGI (SW-620 colon) was over 100 µM. For the same compound, the TGI (OVCAR-3 ovarian) was over 100 µM, the TGI (HL-60(TB) leukemia) was over 100 µM and the TGI (M14 melanoma) was over 100 µM. For the same compound, the TGI (PC-3 prostate) was over 100 µM, the TGI (IGROV1 ovarian) was over 100 µM and the TGI (T-47D breast) was over 100 µM. For the same compound, the TGI (UACC-62 melanoma) was over 100 µM, the TGI (HS 578T breast) was over 100 µM and the TGI (MCF7 breast) was over 100 µM. For the same compound, the TGI (EKVX NSCLC) was over 100 µM, the TGI (SK-OV-3 ovarian) was over 100 µM and the TGI (SNB-19 CNS) was over 100 µM. For the same compound, the TGI (COLO 205 colon) was over 100 µM, the TGI (SK-MEL-5 melanoma) was over 100 µM and the TGI (MDA-N) was over 100 µM. The TGI (SN12C renal) was over 100 µM, the TGI (NCI-H522 lung) was over 100 µM and the TGI (MOLT-4 leukemia) was over 100 µM. The TGI (NCI-H23 lung) was over 100 µM, the TGI (UACC-257 melanoma) was over 100 µM and the TGI (SK-MEL-28 melanoma) was over 100 µM. It also gave a TGI (MDA-MB-231 breast) of over 100 µM, a TGI (SF-295 CNS) of over 100 µM and a TGI (DU-145 prostate) of over 100 µM. The TGI (K-562 leukemia) was over 100 µM, the TGI (UO-31 renal) was over 100 µM and the TGI (NCI-H460 lung) was over 100 µM. It also gave a TGI (SF-539 CNS) of over 100 µM, a TGI (MDA-MB-435) of over 100 µM and a TGI (HOP-92 NSCLC) of over 100 µM. The TGI (SK-MEL-2 melanoma) was over 100 µM, the TGI (LOX IMVI melanoma) was over 100 µM and the TGI (HCC-2998 colon) was over 100 µM. For the same compound, the TGI (OVCAR-8 ovarian) was over 100 µM, the TGI (ACHN renal) was over 100 µM and the TGI (HT29 colon) was over 100 µM. For the same compound, the TGI (CAKI-1 renal) was over 100 µM and the TGI (CCRF-CEM leukemia) was over 100 µM.
